In publication PMC3088502 (Bioorganic & medicinal chemistry, 2011):

Columns and labels:
BxPC3 cells = experiment: Cellular proliferation / cell survival micro-cytotoxicity; format: cell-based, Human
[1] = tested on: AKT phosphorylation at Ser473 in BxPC3 cells; experiment: Detection of pAKT; format: cell-based, Human; conditions: 10 μM, 4 h

Compound: CCCCCCCCCCCCc1ccc(S(=O)(=O)Nc2ccccc2)cc1 [Compound 45]
- Inhibition of BxPC-3 cell proliferation, in words (BxPC3 cells): did inhibit BxPC-3 cell proliferation
- Inhibition of AKT phosphorylation at Ser473 (pAKT), in words [1]: did not inhibit the production of pAKT
